Reference: ChEMBL document CHEMBL3856276, “Design, Synthesis, and Biological Evaluation of Novel Tetrahydroprotoberberine Derivatives (THPBs) as Selective α1A-Adrenoceptor Antagonists” (J Med Chem, 2016)

Legend:
[1] = target: T1, Alpha-1A adrenergic receptor (Homo sapiens) (UniProt P35348); assay: Antagonist activity at human full-length N-terminal SNAP-tagged alpha1A adrenoceptor expressed in HEK293 cells assessed as inhibition of agonist-induced calcium mobilization at 10 uM preincubated for 10 mins followed by agonist addition by fluo-4 AM dye-based assay relative to control; type: functional, cell-based
T1 sequence (whole entry): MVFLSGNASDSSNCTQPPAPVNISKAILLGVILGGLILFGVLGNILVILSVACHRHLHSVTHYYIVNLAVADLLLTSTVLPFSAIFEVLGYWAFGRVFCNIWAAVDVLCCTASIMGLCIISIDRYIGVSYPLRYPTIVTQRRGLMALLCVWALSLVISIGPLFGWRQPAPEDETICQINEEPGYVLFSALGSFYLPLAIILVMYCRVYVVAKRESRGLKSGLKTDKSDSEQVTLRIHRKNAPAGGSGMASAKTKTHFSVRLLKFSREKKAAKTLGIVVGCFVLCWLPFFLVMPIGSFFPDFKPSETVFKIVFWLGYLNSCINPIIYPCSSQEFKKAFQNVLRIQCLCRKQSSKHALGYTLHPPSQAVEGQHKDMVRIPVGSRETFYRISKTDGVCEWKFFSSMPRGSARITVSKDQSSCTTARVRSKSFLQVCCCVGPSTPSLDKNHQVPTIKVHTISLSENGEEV

Homo sapiens [2] = species: Homo sapiens; assay: Selectivity ratio of IC50 for human full-length N-terminal SNAP-tagged alpha1B adrenoceptor to IC50 for human full-length N-terminal SNAP-tagged alpha1A adrenoceptor
Homo sapiens [3] = species: Homo sapiens; assay: Selectivity ratio of IC50 for human full-length N-terminal SNAP-tagged alpha1D adrenoceptor to IC50 for human full-length N-terminal SNAP-tagged alpha1A adrenoceptor
[4] = target: T2, Alpha-1A adrenergic receptor (Homo sapiens, UniProt P35348)
T2 sequence (P35348 whole entry): T1 sequence (whole entry)
Description: Antagonist activity at human full-length N-terminal SNAP-tagged alpha1A adrenoceptor expressed in HEK293 cells assessed as inhibition of agonist-induced calcium mobilization preincubated for 10 mins followed by agonist addition by fluo-4 AM dye-based assay

[5] = target: T3, Alpha-1B adrenergic receptor (Homo sapiens, UniProt P35368)
T3 sequence (P35368 whole entry): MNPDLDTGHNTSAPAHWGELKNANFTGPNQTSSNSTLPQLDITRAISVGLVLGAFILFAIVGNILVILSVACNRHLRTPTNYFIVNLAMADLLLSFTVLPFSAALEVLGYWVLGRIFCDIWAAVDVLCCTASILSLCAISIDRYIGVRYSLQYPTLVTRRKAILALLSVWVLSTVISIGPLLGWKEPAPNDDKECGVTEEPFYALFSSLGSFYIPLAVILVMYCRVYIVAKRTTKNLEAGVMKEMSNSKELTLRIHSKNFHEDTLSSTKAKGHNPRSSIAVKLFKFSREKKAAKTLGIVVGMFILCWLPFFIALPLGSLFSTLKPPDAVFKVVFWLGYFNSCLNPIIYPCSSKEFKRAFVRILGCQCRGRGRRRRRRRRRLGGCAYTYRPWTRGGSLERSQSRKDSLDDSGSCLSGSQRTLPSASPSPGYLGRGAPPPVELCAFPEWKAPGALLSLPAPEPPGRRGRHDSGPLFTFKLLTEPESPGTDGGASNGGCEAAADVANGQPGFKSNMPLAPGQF
Description: Antagonist activity at human full-length N-terminal SNAP-tagged alpha1B adrenoceptor expressed in HEK293 cells assessed as inhibition of agonist-induced calcium mobilization preincubated for 10 mins followed by agonist addition by fluo-4 AM dye-based assay

[6] = target: T4, Alpha-1D adrenergic receptor (Homo sapiens, UniProt P25100)
T4 sequence (P25100 whole entry): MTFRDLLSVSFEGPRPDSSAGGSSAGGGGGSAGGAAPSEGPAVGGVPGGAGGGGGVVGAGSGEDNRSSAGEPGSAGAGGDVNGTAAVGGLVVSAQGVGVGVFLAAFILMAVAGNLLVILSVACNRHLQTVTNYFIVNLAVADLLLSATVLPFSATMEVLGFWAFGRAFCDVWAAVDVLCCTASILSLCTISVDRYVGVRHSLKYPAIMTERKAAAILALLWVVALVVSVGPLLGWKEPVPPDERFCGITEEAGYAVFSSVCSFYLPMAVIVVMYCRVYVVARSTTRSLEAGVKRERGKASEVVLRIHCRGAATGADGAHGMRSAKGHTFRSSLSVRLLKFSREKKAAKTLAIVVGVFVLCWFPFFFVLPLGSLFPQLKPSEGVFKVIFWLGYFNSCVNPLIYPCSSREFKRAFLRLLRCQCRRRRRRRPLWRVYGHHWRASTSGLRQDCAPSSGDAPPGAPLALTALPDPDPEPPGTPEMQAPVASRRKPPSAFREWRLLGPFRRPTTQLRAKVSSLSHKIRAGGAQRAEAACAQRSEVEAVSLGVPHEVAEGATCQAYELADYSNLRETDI
Description: Antagonist activity at human full-length N-terminal SNAP-tagged alpha1D adrenoceptor expressed in HEK293 cells assessed as inhibition of agonist-induced calcium mobilization preincubated for 10 mins followed by agonist addition by fluo-4 AM dye-based assay

[7] = target: T5, Alpha-1A adrenergic receptor (Rattus norvegicus, UniProt P43140); assay: Antagonist activity at alpha1A adrenoceptor in Sprague-Dawley rat urethra assessed as inhibition of norepinephrine-induced smooth muscle contraction after 20 mins
T5 sequence (P43140 whole entry): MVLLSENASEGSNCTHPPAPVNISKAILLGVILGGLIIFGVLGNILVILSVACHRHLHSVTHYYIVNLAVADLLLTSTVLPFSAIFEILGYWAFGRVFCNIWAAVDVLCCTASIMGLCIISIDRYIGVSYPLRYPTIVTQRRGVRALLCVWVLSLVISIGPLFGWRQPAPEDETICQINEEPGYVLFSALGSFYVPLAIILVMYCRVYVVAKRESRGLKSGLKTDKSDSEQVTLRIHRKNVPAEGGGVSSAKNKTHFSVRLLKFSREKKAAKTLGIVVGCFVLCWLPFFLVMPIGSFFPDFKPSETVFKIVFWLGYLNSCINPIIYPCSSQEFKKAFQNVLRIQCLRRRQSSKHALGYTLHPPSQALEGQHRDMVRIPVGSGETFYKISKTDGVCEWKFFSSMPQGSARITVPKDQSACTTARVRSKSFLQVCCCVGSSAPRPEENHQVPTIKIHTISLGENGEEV

[8] = target: T6, Alpha-1B adrenergic receptor (Rattus norvegicus, UniProt P15823); assay: Antagonist activity at alpha1B adrenoceptor in Sprague-Dawley rat aorta assessed as inhibition of norepinephrine-induced smooth muscle contraction after 20 mins
T6 sequence (P15823 whole entry): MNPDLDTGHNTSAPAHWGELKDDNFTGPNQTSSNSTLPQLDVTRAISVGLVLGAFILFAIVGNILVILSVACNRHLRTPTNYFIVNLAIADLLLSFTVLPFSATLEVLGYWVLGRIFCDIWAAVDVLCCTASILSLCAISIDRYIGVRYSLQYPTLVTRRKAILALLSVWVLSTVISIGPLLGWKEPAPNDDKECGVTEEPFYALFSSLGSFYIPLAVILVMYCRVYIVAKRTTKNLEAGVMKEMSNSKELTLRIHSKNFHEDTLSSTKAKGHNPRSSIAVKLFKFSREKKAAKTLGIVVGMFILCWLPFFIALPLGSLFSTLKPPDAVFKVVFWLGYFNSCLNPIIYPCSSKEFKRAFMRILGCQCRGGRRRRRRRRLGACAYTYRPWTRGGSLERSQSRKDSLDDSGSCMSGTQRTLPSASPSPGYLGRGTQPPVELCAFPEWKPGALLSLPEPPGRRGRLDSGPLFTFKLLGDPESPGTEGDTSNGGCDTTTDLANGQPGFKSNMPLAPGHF

[9] = Selectivity ratio of IC50 for alpha1B adrenoceptor in Sprague-Dawley rat aorta to IC50 for alpha1A adrenoceptor in Sprague-Dawley rat urethra
Rattus norvegicus [10] = assay: Inhibition of micturition frequency in po dosed Sprague-Dawley rat benign prostatic hyperplasia model administered 20 mins followed by distilled watering loading measured for 2 hrs; type: functional; settings: read-out: MED
Rattus norvegicus [11] = assay: Increase in voided volume in po dosed Sprague-Dawley rat benign prostatic hyperplasia model administered 20 mins followed by distilled watering loading measured for 2 hrs; type: functional; settings: read-out: MED
[12] = target: Voltage-gated inwardly rectifying potassium channel KCNH2 (Homo sapiens, UniProt Q12809); assay: Inhibition of human ERG
Sequence of Voltage-gated inwardly rectifying potassium channel KCNH2 (Q12809 whole entry): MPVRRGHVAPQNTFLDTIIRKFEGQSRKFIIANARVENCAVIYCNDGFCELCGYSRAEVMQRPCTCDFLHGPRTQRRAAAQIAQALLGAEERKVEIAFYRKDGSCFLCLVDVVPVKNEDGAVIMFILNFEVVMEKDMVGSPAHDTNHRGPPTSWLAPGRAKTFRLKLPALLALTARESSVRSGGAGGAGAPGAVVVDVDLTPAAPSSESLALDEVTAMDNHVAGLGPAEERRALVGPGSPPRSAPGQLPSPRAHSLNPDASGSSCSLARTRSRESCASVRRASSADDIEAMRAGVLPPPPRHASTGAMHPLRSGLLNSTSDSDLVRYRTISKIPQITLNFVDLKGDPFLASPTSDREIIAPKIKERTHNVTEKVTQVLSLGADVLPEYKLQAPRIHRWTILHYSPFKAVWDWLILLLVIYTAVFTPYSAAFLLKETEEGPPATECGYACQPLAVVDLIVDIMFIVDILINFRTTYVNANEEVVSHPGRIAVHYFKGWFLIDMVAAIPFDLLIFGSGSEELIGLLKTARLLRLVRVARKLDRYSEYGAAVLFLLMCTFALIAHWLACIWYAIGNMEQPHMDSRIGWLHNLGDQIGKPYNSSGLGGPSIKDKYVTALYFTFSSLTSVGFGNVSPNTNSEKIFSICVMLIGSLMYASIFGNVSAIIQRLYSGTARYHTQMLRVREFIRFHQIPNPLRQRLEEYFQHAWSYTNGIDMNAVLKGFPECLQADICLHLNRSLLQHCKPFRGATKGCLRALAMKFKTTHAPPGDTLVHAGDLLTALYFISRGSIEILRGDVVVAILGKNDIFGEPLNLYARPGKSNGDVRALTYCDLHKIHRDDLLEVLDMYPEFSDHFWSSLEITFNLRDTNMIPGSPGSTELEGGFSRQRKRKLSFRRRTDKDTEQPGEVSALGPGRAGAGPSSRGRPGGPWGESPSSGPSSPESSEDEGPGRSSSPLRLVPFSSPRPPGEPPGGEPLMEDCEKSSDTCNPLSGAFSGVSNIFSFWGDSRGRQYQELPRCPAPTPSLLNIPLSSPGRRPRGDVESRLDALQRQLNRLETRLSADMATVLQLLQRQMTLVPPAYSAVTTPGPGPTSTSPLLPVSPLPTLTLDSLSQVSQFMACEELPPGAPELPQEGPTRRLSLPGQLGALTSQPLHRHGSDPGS

[13] = target: T5, Alpha-1A adrenergic receptor; assay: Displacement of [125I]-BE2254 from Wistar rat alpha1A adrenoceptor after 20 mins

SMILES	inhibition [1]	IC50 [4]	further results
c1ccc2c3c([nH]c2c1)CN1CCc2cc4c(cc2C1C3)OCO4 (centres undefined)	100%	125 nM	Ratio IC50 (Homo sapiens [2]): > 80; Ratio IC50 (Homo sapiens [3]): > 80; IC50 [5]: > 10000 nM; IC50 [6]: > 10000 nM
c1c2c(cc3c1OCO3)CN1CCc3cc4c(cc3C1C2)OCO4 (centres undefined)	–	462 nM	–
COc1ccc2c(c1)CCN1C2Cc2c([nH]c3ccccc23)C1C1CC1 (centres undefined)	31%	–	–
c1ccc(COc2ccc3[nH]c4c(c3c2)CC2c3cc5c(cc3CCN2C4)OCO5)cc1 (centres undefined)	100%	2880 nM	–
COc1ccc(C2c3[nH]c4ccccc4c3CC3c4cc5c(cc4CCN32)OCO5)cc1 (centres undefined)	0%	–	–
COc1ccc(C2c3[nH]c4ccccc4c3CC3c4cc(OC)c(OC)cc4CCN32)cc1 (centres undefined)	21%	–	–
Fc1ccc2c3c([nH]c2c1)CN1CCc2cc4c(cc2C1C3)OCO4 (centres undefined)	100%	2060 nM	–
CC(C)CC1c2[nH]c3ccccc3c2CC2c3cc4c(cc3CCN21)OCO4 (centres undefined)	0%	–	–
COc1cc2c(cc1OC)C1Cc3c([nH]c4ccccc34)C(CC(C)C)N1CC2 (centres undefined)	72%	–	–
CCOc1ccccc1OCCN[C@H](C)Cc1ccc(OC)c(S(N)(=O)=O)c1 [TAMSULOSIN]	100%	–	IC50 [5]: 4.8 nM; IC50 [6]: 1.4 nM
Fc1ccc(C2c3[nH]c4ccccc4c3CC3c4cc5c(cc4CCN32)OCO5)cc1 (centres undefined)	0%	–	–
COc1ccc(C2c3[nH]c4ccccc4c3CC3c4ccc(OC)cc4CCN32)cc1 (centres undefined)	80%	> 10000 nM	–
COc1cc2c(cc1O)[C@@H]1Cc3ccc(O)c(OC)c3CN1CC2 [STEPHOLIDINE]	–	–	Ki [13]: 2240 nM
COc1ccc2c(c1OC)CN1CCc3cc4c(cc3[C@@H]1C2)OCO4 [CANADINE]	–	5400 nM	–
COc1ccc2c(c1OC)CN1CCc3cc4c(cc3C1C2)OCO4 (centres undefined) [TETRAHYDROBERBERINE]	–	–	Ki [13]: 1120 nM
CCC1c2[nH]c3ccccc3c2CC2c3cc4c(cc3CCN21)OCO4 (centres undefined)	82%	> 10000 nM	–
COc1cc2c(cc1OC)C1Cc3c([nH]c4ccccc34)C(c3ccc(F)cc3)N1CC2 (centres undefined)	0%	–	–
c1ccc2c3c([nH]c2c1)CN1CCc2cc4c(cc2[C@@H]1C3)OCO4	99%	57.4 nM	Ratio IC50 (Homo sapiens [2]): > 174; Ratio IC50 (Homo sapiens [3]): > 174; IC50 [5]: > 10000 nM; IC50 [6]: > 10000 nM
COc1cc2cc[n+]3c(c2cc1OC)Cc1ccc(OC)c(OC)c1C3	–	7600 nM	–
COc1cccc2[nH]c3c(c12)CC1c2cc4c(cc2CCN1C3)OCO4 (centres undefined)	100%	202 nM	Ratio IC50 (Homo sapiens [2]): > 19.4; Ratio IC50 (Homo sapiens [3]): > 19.4; IC50 [5]: > 10000 nM; IC50 [6]: > 10000 nM
COc1ccc2c(c1)CCN1C(C)c3[nH]c4ccccc4c3CC21 (centres undefined)	90%	8670 nM	–
Fc1ccc2[nH]c3c(c2c1)CC1c2cc4c(cc2CCN1C3)OCO4 (centres undefined)	100%	254 nM	Ratio IC50 (Homo sapiens [2]): > 39.4; Ratio IC50 (Homo sapiens [3]): 33.1; IC50 [5]: > 10000 nM; IC50 [6]: 8390 nM
COc1cc2c(cc1OC)C1Cc3c([nH]c4ccccc34)C(c3ccccc3)N1CC2 (centres undefined)	0%	–	–
COc1cc2c(cc1O)[C@@H]1Cc3c(Cl)cc(OC)c(O)c3CN1CC2	–	–	Ki [13]: 1380 nM

Second part, led by results:

inhibition [1]	IC50 [4]	SMILES	further results
56%	–	COc1ccc2[nH]c3c(c2c1)CC1c2cc(O)c(OC)cc2CCN1C3 (centres undefined)	–
100%	594 nM	COc1ccc2c3c([nH]c2c1)CN1CCc2cc4c(cc2C1C3)OCO4 (centres undefined)	Ratio IC50 (Homo sapiens [2]): > 16.8; Ratio IC50 (Homo sapiens [3]): > 16.8; IC50 [5]: > 10000 nM; IC50 [6]: > 10000 nM
99%	17.6 nM	COc1ccc2[nH]c3c(c2c1)CC1c2cc4c(cc2CCN1C3)OCO4 (centres undefined)	Ratio IC50 (Homo sapiens [2]): > 568; Ratio IC50 (Homo sapiens [3]): 229; IC50 [7]: 45.4 nM; IC50 [8]: > 1000 nM; Ratio IC50 [9]: >22.02; minimal effective dose (Rattus norvegicus [10]): 10 mg/kg; minimal effective dose (Rattus norvegicus [11]): 3 mg/kg; IC50 [12]: 16500 nM; IC50 [5]: > 10000 nM; IC50 [6]: 4040 nM
0%	–	COc1ccc2[nH]c3c(c2c1)CC1c2cc(OC)c(O)cc2CCN1C3 (centres undefined)	–
98%	2290 nM	CCCCOc1cc2c(cc1OC)CCN1Cc3[nH]c4ccc(OC)cc4c3CC21 (centres undefined)	–
63%	–	CCCCOc1cc2c(cc1OC)C1Cc3c([nH]c4ccc(OC)cc34)CN1CC2 (centres undefined)	–
41.2%	–	COc1cc2c(cc1OC)[C@@H]1Cc3ccc(OC)c(OC)c3CN1CC2	–
17%	–	CCOc1cc2c(cc1OC)C1Cc3c([nH]c4ccc(OC)cc34)CN1CC2 (centres undefined)	–
21%	–	CCCOc1cc2c(cc1OC)C1Cc3c([nH]c4ccc(OC)cc34)CN1CC2 (centres undefined)	–
60%	–	COc1cc2c(cc1OC)C1Cc3c([nH]c4ccccc34)CN1CC2 (centres undefined)	–
75%	–	CCOc1cc2c(cc1OC)CCN1Cc3[nH]c4ccc(OC)cc4c3CC21 (centres undefined)	–
100%	3190 nM	COc1ccc2[nH]c3c(c2c1)C[C@@H]1c2cc4c(cc2CCN1C3)OCO4	–
100%	552 nM	COc1ccc2c(c1)CCN1Cc3[nH]c4ccccc4c3CC21 (centres undefined)	–
100%	225 nM	CCCOc1cc2c(cc1OC)CCN1Cc3[nH]c4ccc(OC)cc4c3CC21 (centres undefined)	Ratio IC50 (Homo sapiens [2]): > 44.4; Ratio IC50 (Homo sapiens [3]): > 44.4; IC50 [5]: > 10000 nM; IC50 [6]: > 10000 nM
